Data on three compounds can be found in paper PMC10499737 (Inflammation Research, 2023).

As usually defined, the IC50 is the concentration that gives 50% inhibition. Low values mean greater potency in that assay, high ones weaker potency in that assay. The term ED50 denotes the dose at which the effect has come halfway, by size or by number of responders.

The structures appear in SMILES notation. Where two headings read alike, the source gives them in different places.

On the set-up of data set [1]: method as in PMID 28800383. As to conditions: Phase 1 study; cited from earlier work.
A further data set relates to healthy volunteers. On the set-up: method as in PMID 29484635. Particulars: once daily up to 40 mg for up to 28 days; cited from earlier work.
The test system of data set [2] is patients with bronchiectasis. Particulars: 10 mg or 25 mg once daily, 24 weeks; cited from earlier work.
Data set [3] is described as follows: Bone marrow and plasma exposure after repeated oral dosing (LC-MS/MS). It counts as in vivo. Particulars: Crl:NMRI, mouse, 11-day dosing; for Kp at 5 h: bone marrow/plasma, 5 h after final dose, read-out: bone marrow-to-plasma exposure ratio. As for the experimental part:
At 5 h after final BI 1291583 administration, animals were euthanised by Narcoren application (400–600 mg/kg intraperitoneally). For assessment of BI 1291583 exposure in plasma, five drops of retrobulbar blood were taken. The femur was prepared by extraction, shock frozen in liquid nitrogen and stored at − 20 °C until bone marrow preparation. For preparation of bone marrow, epiphysis severed off and bone marrow extracted from the diaphysis. Exposure was measured via liquid chromatography–tandem mass spectrometry. […]

Data set [4] relates to production of active NE in U937 cells. The experiment in a line: Inhibition of the production of active NE in a neutrophil progenitor cell line. It is filed as cell-based. Particulars: Homo sapiens, U-937, 48 h incubation. The source says:
The inhibitory activity of BI 1291583 on the production of active NE was investigated in duplicate experiments in the human myeloid cell line U937. U937 cells were used as they constitutively express and process NE. Additionally, a myeloid cell line was used rather than primary neutrophils as CatC activates NSPs in the bone marrow during myelopoiesis and no further activation occurs once the neutrophils have entered the bloodstream; as such, the effect of CatC inhibition cannot be investigated in primary neutrophils. BI 1291583 was added to cell suspensions at a final concentration of 0.064, 0.32, 1.6, 8, 40, 200 and 1000 nM. Cells were then incubated for 48 h. Cell viability was then measured in duplicate experiments using the CellTiter-Glo® Luminescent Cell Viability Assay according to manufacturer’s instructions. For measurement of NE activity, cells were separated by centrifugation, lysed and debris removed. NE activity was measured by conversion of a fluorescent substrate. Increase in fluorescence was measured over time with a SpectramaxM5 fluorescence reader at 360 nm excitation wavelength and 460 nm emission wavelength. The reaction rate when CatC is fully saturated by BI 1291583 was used as primary readout to calculate NE activity. Percentage inhibition of NE activity in lysates treated with BI 1291583 was calculated relative to the mean of the vehicle-only control. […]

The test system of data set [5] is NE activity in mouse BALF neutrophils. The experiment in a line: In vivo LPS-challenge model: NE activity in BALF neutrophil lysate. Particulars: 11-day dosing. As for the experimental part:
In the first—a 2-day treatment holiday regimen—mice were treated with 0.005, 0.05, 0.5 or 5 mg/kg BI 1291583, or vehicle, twice daily by oral gavage on Days 1‒5, 8 and 9. On Day 10, a final dose of BI 1291583 or vehicle was given followed by challenge with nebulised E. coli lipopolysaccharide (LPS) to induce neutrophil influx into the lungs. In the second dosing regimen, mice were treated with 0.00005, 0.0001, 0.001, 0.01, 0.03, 0.1, 0.5 or 5 mg/kg BI 1291583, or vehicle, once daily by oral gavage for 11 consecutive days. On Day 12, a final dose of BI 1291583 or vehicle was given followed by LPS challenge.
Four and a half hours after LPS challenge, lung neutrophils were harvested by lavage via tracheal cannula, and neutrophil count measured. Bronchoalveolar lavage fluid (BALF) samples were then centrifuged and cell pellets lysed with volume of lysis buffer normalised to neutrophil count. NE, CatG and PR3 activity were determined by conversion of a fluorescent substrate measured over time with a SpectramaxM5 fluorescence reader at 360 nm excitation wavelength and 460 nm emission wavelength. Fluorescence values were normalised to neutrophil count, and mean NE, CatG and PR3 activity from BI 1291583-treated animals was calculated relative to the mean of LPS/vehicle-treated control animals. CatG and PR3 activity was measured in pooled samples from each dose group. For the 11-day dosing experiments, the dose of BI 1291583 that inhibited 50% of NE activity (ED50) was calculated using GraphPad Prism software (version 9.5.0 for Windows, GraphPad Software, www.graphpad.com) with a non-linear regression curve fit. […] A one-way analysis of variance with Dunnett’s multiple comparisons test analysis was performed to determine statistical significance.
The inhibitory activity of INS1007 on the production of active NE, and distribution of INS1007 to bone marrow and plasma was investigated under the same conditions as the 11-day dosing regimen (see Methods, Additional File 1).
The animals were treated with BI 1291583 (0.005, 0.05, 0.5 and 5 mg/kg) or vehicle twice daily on Days 1‒5, 8 and 9. BI 1291583 or vehicle was applied orally by gavage (10 ml/kg body weight). On Day 10, animals were treated with BI 1291583 or vehicle followed by an LPS inhalation challenge.
The animals were treated with BI 1291583 (0.00005, 0.0001, 0.001, 0.01, 0.03, 0.1, 0.5, 5 mg/kg) or vehicle once daily for 11 consecutive days. BI 1291583 or vehicle was applied orally by gavage (10 ml/kg body weight). On Day 12, animals were treated with BI 1291583 or vehicle followed by an LPS inhalation challenge.
To induce neutrophil influx into the lungs, animals were challenged with an LPS inhalation at Day 12 of this study. LPS from E.coli (serotype 055:B5) was used (SigmaAldrich #L2880). […]
The trachea was cannulated and a lavage was performed using 2x1 ml lavage buffer (HBSS [HyClone, # Sh30588,01] with 10 U/ml heparin). Cell count in the lavage fluid and cell differentiation were determined using a haemocytometer (Sysmex XT-200i), following the supplier’s instructions.
For enzymatic NE measurement, the lavage cells were separated from two 500 µl aliquots of lavage fluid by centrifugation (1500rpm, 4°C, 15min), the supernatants were removed and the pellets were stored at -80°C for further analyses. For enzymatic proteinase 3 (PR3) and Cat G measurement, the remaining lavage samples from all animals of each dose group were pooled and cell count and cell differentiation were determined as described above. […]

As to `CC[C@@H](/C=C/C(=O)N1CCc2ccccc21)NC(=O)C1(N)CCOCC1` [GSK2793660], in data set [1], the “inhibition of downstream NSPs” value is “insufficient inhibition of downstream NSPs” and the skin events result is given as “marked skin desquamation events”.
For `Cn1c(=O)oc2ccc(-c3ccc(C[C@@H](C#N)NC(=O)[C@@H]4CNCCCO4)cc3)cc21` [brensocatib], in the data set on healthy volunteers, the NE activity result is given as “Exposure-related reduction”; the safety profile entry is given as “generally well-tolerated”; the skin findings result is “several dose-dependent, possibly CatC-related non-serious skin findings (exfoliation and hyperkeratosis)”. In addition, in data set [2], the “annualised rates of exacerbations and number of severe exacerbations compared with placebo” value was “lower”; the “incidence of hyperkeratosis compared with the placebo group” value is reported as “higher”; the “risk of exacerbation over the treatment period compared with placebo” value was “lower”; the “time to first exacerbation compared with placebo” value is reported as “significantly increased”.
Regarding `Cn1c(=O)oc2ccc(-c3ccc(C[C@@H](C#N)NC(=O)[C@@H]4CNCCCO4)cc3)cc21` [INS1007], the concentration at 5 h worked out at 143 nM in data set [3] (bone marrow, 0.1 mg/kg, 5 h after final dose on Day 12, read-out: exposure in bone marrow, mean (SEM)); 321 nM in data set [3] (bone marrow, 0.5 mg/kg, 5 h after final dose on Day 12, read-out: exposure in bone marrow, mean (SEM)); 1690 nM in data set [3] (bone marrow, 5 mg/kg, 5 h after final dose on Day 12, read-out: exposure in bone marrow, mean (SEM)); 6 nM in data set [3] (plasma, 0.1 mg/kg, 5 h after final dose on Day 12, read-out: exposure in plasma, mean (SEM)); 40 nM in data set [3] (plasma, 0.5 mg/kg, 5 h after final dose on Day 12, read-out: exposure in plasma, mean (SEM)); 710 nM in data set [3] (plasma, 5 mg/kg, 5 h after final dose on Day 12, read-out: exposure in plasma, mean (SEM)). The Kp at 5 h in data set [3] (0.1 mg/kg, 0.1 mg/kg) is 24; in data set [3] (0.5 mg/kg, 0.5 mg/kg) it was 8; in data set [3] (5 mg/kg, 5 mg/kg) it was 2. This compound also came in with an IC50 in data set [4] of 64 nM. Further, the “inhibition of production of active NE compared with vehicle/LPS control” value in data set [5] (0.1 mg/kg once daily oral) is given as “no inhibition”. The inhibition at 30 mg/kg in data set [5] (Mus musculus, Neutrophil, 264 h, at 30 mg/kg (range 0.3-50 mg/kg), p<0.001, read-out: maximum inhibition of production of active NE compared with LPS control) is 76%. The inhibition at 0.5 mg/kg in data set [5] (Mus musculus, Neutrophil, po, 264 h, 0.5 mg/kg once daily oral, read-out: inhibition of production of active NE compared with vehicle/LPS control) was 19%. The inhibition at 5 mg/kg in data set [5] (Mus musculus, Neutrophil, po, 264 h, 5 mg/kg once daily oral, read-out: inhibition of production of active NE compared with vehicle/LPS control) came to 75%. Besides, the ED50 in data set [5] (Neutrophil, 264 h, once daily oral, read-out: ED50 for NE inhibition) is 1.4 mg/kg.
